Measurements published in patent US10364245B2 (CHIESI FARMACEUTICI S.p.A., priority 2017, dated 2019).
Structures can show the parent of a compound that is named as a salt.

Tests used:
[1] = system: Peripheral Blood Mononuclear Cells (PBMCs), TNFα release; experiment: LPS-stimulated PBMC TNFα release assay; format: cell-based; conditions: human PBMC, LPS (10 ng/ml), 18 h, compound 1 h before LPS; read-out: LPS-stimulated PBMC TNFα release inhibition
Outline: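 Human PBMCs from healthy donors, serum-starved 3 h, then pre-incubated 1 h at 37 °C with compound in 1% FBS medium before LPS (10 ng/ml) for 18 h. Supernatant TNFα measured by MSD; IC50 from dose-response as % inhibition of control, at least three experiments.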

p38 alpha = target: T1, p38 alpha (Homo sapiens, UniProt Q16539); experiment: P38 alpha enzyme inhibition assay (Alphascreen kinase activity assay); format: biochemical; conditions: 100 pM p38 alpha, 2 hours preincubation at 25° C., 250 μM ATP, ATF-2 fusion protein; read-out: p38α inhibition
T1 construct: purchased Invitrogen PV3304
T1 sequence (Q16539 whole entry, the tested form may be a part): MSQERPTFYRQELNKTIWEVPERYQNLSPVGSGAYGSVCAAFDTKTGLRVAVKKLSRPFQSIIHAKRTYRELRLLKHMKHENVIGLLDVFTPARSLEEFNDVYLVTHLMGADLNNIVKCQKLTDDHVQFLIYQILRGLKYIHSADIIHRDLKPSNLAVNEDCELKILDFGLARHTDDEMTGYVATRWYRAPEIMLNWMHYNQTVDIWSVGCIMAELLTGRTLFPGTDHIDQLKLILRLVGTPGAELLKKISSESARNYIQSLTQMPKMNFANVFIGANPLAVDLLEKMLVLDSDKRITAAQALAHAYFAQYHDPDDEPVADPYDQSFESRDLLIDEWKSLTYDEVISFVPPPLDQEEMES
Outline: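 100 pM p38 alpha preincubated 2 h at 25 °C with compound and 0.3 μg/ml ATF-2 fusion substrate (HEPES pH 7.5, MgCl2, 1% DMSO). Reaction started with 250 μM ATP, run 1 h at 25 °C, stopped with EDTA; phospho-ATF2 detected by AlphaScreen luminescence. IC50 from concentration-response curves.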

| IC50 (p38 alpha) [nM] | SMILES | IC50 [1] [nM] |
| --- | --- | --- |
| 1 to 10 | CC(C)(C)c1cc(NC(=O)N[C@H]2CC[C@@H](Oc3ccc4nnc(C(C)(C)C)n4c3)c3ccccc32)nc(CN2CCNC(=O)C2)n1 [Example 113, 1-(6-(tert-Butyl)-2-((3-oxopiperazin-1-yl)methyl)pyrimidin-4-yl)-3-((1S,4R)-4-((3-(tert-butyl)-[1,2,4]-triazolo[4,3-a]pyridin-6-yl)oxy)-1,2,3,4-tetrahydronaphthalen-1-yl)urea partial formate salt] | > 5 |
| < 1 | CCN(C)CCNC(=O)c1nc(NC(=O)N[C@H]2CC[C@@H](Oc3ccc4nnc(C(C)(C)C)n4c3)c3ccccc32)cc(C(C)(C)C)n1 [Example 114, 4-(tert-butyl)-6-(3-((1S,4R)-4-((3-(tert-butyl)-[1,2,4]triazolo[4,3-a]pyridin-6-yl)oxy)-1,2,3,4-tetrahydronaphthalen-1-yl)ureido)-N-(2-(ethyl(methyl)amino)-ethyl)pyrimidine-2-carboxamide] | < 1 |
| < 1 | CN(C)C(C)(C)CNC(=O)c1nc(NC(=O)N[C@H]2CC[C@@H](Oc3ccc4nnc(C(C)(C)C)n4c3)c3ccccc32)cc(C(C)(C)C)n1 [Example 117, 4-(tert-butyl)-6-(3-((1S,4R)-4-((3-(tert-butyl)-[1,2,4]triazolo[4,3-a]pyridin-6-yl)oxy)-1,2,3,4-tetrahydronaphthalen-1-yl)ureido)-N-(2-(dimethylamino)-2-methylpropyl)pyrimidine-2-carboxamide] | < 1 |
| 1 to 10 | CN(C)CCCNC(=O)c1nc(NC(=O)N[C@H]2CC[C@@H](Oc3ccc4nnc(C(C)(C)C)n4c3)c3ccccc32)cc(C(C)(C)C)n1 [Example 118, 4-(tert-butyl)-6-(3-((1S,4R)-4-((3-(tert-butyl)-[1,2,4]triazolo[4,3-a]pyridin-6-yl)oxy)-1,2,3,4-tetrahydronaphthalen-1-yl)ureido)-N-(3-(dimethylamino)-propyl)pyrimidine-2-carboxamide] | 1 to 5 |
| < 1 | CN1CCN(CCNC(=O)c2nc(NC(=O)N[C@H]3CC[C@@H](Oc4ccc5nnc(C(C)(C)C)n5c4)c4ccccc43)cc(C(C)(C)C)n2)CC1 [Example 119, 4-(tert-butyl)-6-(3-((1S,4R)-4-((3-(tert-butyl)-[1,2,4]triazolo[4,3-a]pyridin-6-yl)oxy)-1,2,3,4-tetrahydronaphthalen-1-yl)ureido)-N-(2-(4-methylpiperazin-1-yl)ethyl)pyrimidine-2-carboxamide] | > 5 |
| < 1 | CC(C)(C)c1cc(NC(=O)N[C@H]2CC[C@@H](Oc3ccc4nnc(C(C)(C)C)n4c3)c3ccccc32)nc(C(=O)NCCN(CCO)CCO)n1 [Example 120, N-(2-(bis(2-hydroxyethyl)amino)ethyl)-4-(tert-butyl)-6-(3-((1S,4R)-4-((3-(tert-butyl)-[1,2,4]triazolo[4,3-a]pyridin-6-yl)oxy)-1,2,3,4-tetrahydronaphthalen-1-yl)ureido)pyrimidine-2-carboxamide] | > 5 |
| < 1 | COCC(C)(C)c1nnc2ccc(O[C@@H]3CC[C@H](NC(=O)Nc4cc(C(C)(C)C)nc(C(=O)NCCCN5CCOCC5)n4)c4ccccc43)cn12 [Example 121, 4-(tert-butyl)-6-(3-((1S,4R)-4-((3-(1-methoxy-2-methylpropan-2-yl)-[1,2,4]triazolo[4,3-a]pyridin-6-yl)oxy)-1,2,3,4-tetrahydronaphthalen-1-yl)ureido)-N-(3-morpholinopropyl)-pyrimidine-2-carboxamide] | 1 to 5 |
| < 1 | COCC(C)(C)c1nnc2ccc(O[C@@H]3CC[C@H](NC(=O)Nc4cc(C(C)(C)C)nc(C(=O)NCCN5CCCOCC5)n4)c4ccccc43)cn12 [Example 122, N-(2-(1,4-oxazepan-4-yl)ethyl)-4-(tert-butyl)-6-(3-((1S,4R)-4-((3-(1-methoxy-2-methylpropan-2-yl)-[1,2,4]triazolo[4,3-a]pyridin-6-yl)oxy)-1,2,3,4-tetrahydronaphthalen-1-yl)ureido)pyrimidine-2-carboxamide] | 1 to 5 |
| < 1 | COCC(C)(C)c1nnc2ccc(O[C@@H]3CC[C@H](NC(=O)Nc4cc(C(C)(C)C)nc(C(=O)NCCN(C)CCO)n4)c4ccccc43)cn12 [Example 123, 4-(tert-butyl)-N-(2-((2-hydroxyethyl)(methyl)-amino)ethyl)-6-(3-((1S,4R)-4-((3-(1-methoxy-2-methylpropan-2-yl)-[1,2,4]triazolo[4,3-a]pyridin-6-yl)oxy)-1,2,3,4-tetrahydronaphthalen-1-yl)ureido)pyrimidine-2-carboxamide] | 1 to 5 |
| 1 to 10 | COC(C)(C)c1nnc2ccc(O[C@@H]3CC[C@H](NC(=O)Nc4cc(C(C)(C)C)nc(C(=O)NCCCN5CCOCC5)n4)c4ccccc43)cn12 [Example 124] | 1 to 5 |
| 1 to 10 | COC(C)(C)c1nnc2ccc(O[C@@H]3CC[C@H](NC(=O)Nc4cc(C(C)(C)C)nc(C(=O)NCCN(C)CCO)n4)c4ccccc43)cn12 [Example 125, 4-(tert-butyl)-N-(2-((2-hydroxyethyl)(methyl)-amino)ethyl)-6-(3-((1S,4R)-4-((3-(2-methoxypropan-2-yl)-[1,2,4]triazolo[4,3-a]pyridin-6-yl)oxy)-1,2,3,4-tetrahydronaphthalen-1-yl)ureido)pyrimidine-2-carboxamide] | > 5 |
| < 1 | CN1CC(C(=O)NCc2nc(NC(=O)N[C@H]3CC[C@@H](Oc4ccc5nnc(C(C)(C)C)n5c4)c4ccccc43)cc(C(C)(C)C)n2)C1 [Example 126, N-((4-(tert-butyl)-6-(3-((1S,4R)-4-((3-(tert-butyl)-[1,2,4]triazolo[4,3-a]pyridin-6-yl)oxy)-1,2,3,4-tetrahydronaphthalen-1-yl)ureido)pyrimidin-2-yl)methyl)-1-methylazetidine-3-carboxamide] | > 5 |
| < 1 | CN(C)CCC(=O)NCc1nc(NC(=O)N[C@H]2CC[C@@H](Oc3ccc4nnc(C(C)(C)C)n4c3)c3ccccc32)cc(C(C)(C)C)n1 [Example 127, N-((4-(tert-butyl)-6-(3-((1S,4R)-4-((3-(tert-butyl)-[1,2,4]triazolo[4,3-a]pyridin-6-yl)oxy)-1,2,3,4-tetrahydronaphthalen-1-yl)ureido)pyrimidin-2-yl)methyl)-3-(dimethylamino)-propanamide] | > 5 |
| < 1 | CN1CCN(C(=O)c2nc(NC(=O)N[C@H]3CC[C@@H](Oc4ccc5nnc(C(C)(C)C)n5c4)c4ccccc43)cc(C(C)(C)C)n2)CC1 [Example 128, 1-(6-(tert-butyl)-2-(4-methylpiperazine-1-carbonyl)pyrimidin-4-yl)-3-((1S,4R)-4-((3-(tert-butyl)-[1,2,4]triazolo[4,3-a]pyridin-6-yl)oxy)-1,2,3,4-tetrahydronaphthalen-1-yl)urea] | > 5 |
| < 1 | CN1CC[C@@H](NC(=O)c2nc(NC(=O)N[C@H]3CC[C@@H](Oc4ccc5nnc(C(C)(C)C)n5c4)c4ccccc43)cc(C(C)(C)C)n2)C1 [Example 129, 4-(tert-butyl)-6-(3-((1S,4R)-4-((3-(tert-butyl)-[1,2,4]triazolo[4,3-a]pyridin-6-yl)oxy)-1,2,3,4-tetrahydronaphthalen-1-yl)ureido)-N-((R)-1-methylpyrrolidin-3-yl)pyrimidine-2-carboxamide] | > 5 |
| < 1 | CN(C)CCOCCNC(=O)c1nc(NC(=O)N[C@H]2CC[C@@H](Oc3ccc4nnc(C(C)(C)C)n4c3)c3ccccc32)cc(C(C)(C)C)n1 [Example 130, 4-(tert-butyl)-6-(3-((1S,4R)-4-((3-(tert-butyl)-[1,2,4]triazolo[4,3-a]pyridin-6-yl)oxy)-1,2,3,4-tetrahydronaphthalen-1-yl)ureido)-N-(2-(2-(dimethylamino)ethoxy)-ethyl)pyrimidine-2-carboxamide] | > 5 |
| < 1 | CCC(C)(C)c1nnc2ccc(O[C@@H]3CC[C@H](NC(=O)Nc4cc(C(C)(C)C)nc(C(=O)NCCN5CCOCC5)n4)c4ccccc43)cn12 [Example 131, 4-(tert-butyl)-N-(2-morpholinoethyl)-6-(3-((1S,4R)-4-((3-(tert-pentyl)-[1,2,4]triazolo[4,3-a]pyridin-6-yl)oxy)-1,2,3,4-tetrahydronaphthalen-1-yl)ureido)pyrimidine-2-carboxamide] | 1 to 5 |
| < 1 | CCC(C)(C)c1nnc2ccc(O[C@@H]3CC[C@H](NC(=O)Nc4cc(C(C)(C)C)nc(C(=O)NCCCN5CCOCC5)n4)c4ccccc43)cn12 [Example 132, 4-(tert-butyl)-N-(3-morpholinopropyl)-6-(3-((1S,4R)-4-((3-(tert-pentyl)-[1,2,4]triazolo[4,3-a]pyridin-6-yl)oxy)-1,2,3,4-tetrahydronaphthalen-1-yl)ureido)pyrimidine-2-carboxamide] | 1 to 5 |
| 1 to 10 | CN1CCC(NC(=O)c2nc(NC(=O)N[C@H]3CC[C@@H](Oc4ccc5nnc(C(C)(C)C)n5c4)c4ccccc43)cc(C(C)(C)C)n2)CC1 [Example 134, 4-(tert-butyl)-6-(3-((1S,4R)-4-((3-(tert-butyl)-[1,2,4]triazolo[4,3-a]pyridin-6-yl)oxy)-1,2,3,4-tetrahydronaphthalen-1-yl)ureido)-N-(1-methylpiperidin-4-yl)pyrimidine-2-carboxamide] | > 5 |
